Like-named read-outs stand apart in the source and are kept apart here.

The source of these data is article PMC3756936 (Journal of medicinal chemistry, 2013).

The subject of one data set is COS. The following applies: African green monkey.
The test system of another data set is HEK293 cells. The following applies: human.
The test system of the next data set is CHO. To be noted: Chinese hamster.
A short description of data set [1]: Mouse liver microsomal stability. Type of data set: in vitro ADME. To be noted: liver microsomes, 37 °C.
The target in the next data set is T1, CpIMPDH (Cryptosporidium parvum, UniProt Q8T6T2).
T1 sequence (Q8T6T2 1-400): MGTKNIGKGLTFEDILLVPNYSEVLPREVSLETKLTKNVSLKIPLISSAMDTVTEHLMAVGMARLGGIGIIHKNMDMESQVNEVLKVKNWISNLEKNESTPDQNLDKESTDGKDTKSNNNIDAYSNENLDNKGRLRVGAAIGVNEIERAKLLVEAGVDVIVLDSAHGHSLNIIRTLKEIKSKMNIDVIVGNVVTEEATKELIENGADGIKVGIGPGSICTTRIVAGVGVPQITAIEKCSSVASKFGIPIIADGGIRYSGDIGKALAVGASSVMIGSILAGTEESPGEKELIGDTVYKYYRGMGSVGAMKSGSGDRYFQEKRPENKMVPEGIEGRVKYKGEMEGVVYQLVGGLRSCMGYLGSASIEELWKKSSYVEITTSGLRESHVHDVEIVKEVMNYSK
Kind of data set: biochemical. To be noted: for inhibition mechanism with respect to NAD+: best fit; for inhibition mechanism with respect to NAD+ / inhibition mechanism with respect to IMP: in words. Type of data set: biochemical.

The test system of the next data set is HeLa. To be noted: human.
Data set [2] concerns Toxo/CpIMPDH (T. gondii strain that relies on CpIMPDH). Description: microbe, parasite or virus in culture. The following applies: for EC50: Toxoplasma gondii, read-out: EC50 Toxo/CpIMPDH. Type of data set: cell-based, Toxoplasma gondii.

As to `C[C@H](Nc1cccc(Cl)c1Cl)C(=O)Nc1ccc2oc(-c3ccncc3)nc2c1` [15a, (S)-2-(2,3-dichlorophenylamino)-N-(2-(pyridine-4-yl)benzo[d]oxazol-5-yl) propionamide], the LD50 with COS, in the data set with HEK293 cells and in the data set on CHO was greater than 50 µM each time.

Take `C[C@H](Oc1cccc(Cl)c1Cl)C(=O)Nc1ccc2nc(-c3ccncc3)oc2c1` [40a, (S)-2-(2,3-dichlorophenoxy)-N-(2-(pyridin-4-yl)benzo[d]oxazol-6-yl)propionamide]: the LD50 in the data set with COS, with HEK293 cells and in the data set on CHO was greater than 50 µM each time. The half-life in data set [1] (t1/2 (min) + NADPH, + NADPH) is no more than 12 min; in data set [1] (t1/2 (min) − NADPH, − NADPH) it was no more than 12 min.

On CpIMPDH (Kis (nM), Substrate IMP), `CC(Oc1ccc(Cl)cc1Cl)C(=O)Nc1ccc2oc(-c3ccncc3)nc2c1` (stereo not drawn) [compound 1] came in with a Ki of 58 ± 5 nM. The compound further yielded a Ki at CpIMPDH (Kis (nM), Substrate NAD) of 33 ± 8 nM. In addition, on CpIMPDH, the “inhibition mechanism with respect to NAD+” value was “competitive” and the “inhibition mechanism with respect to IMP” value is given as “noncompetitive”.

For the compound `CC(Oc1ccccc1Cl)C(=O)Nc1ccc2oc(-c3ccncc3)nc2c1` (stereo not drawn) [compound 41, 2-(2-chlorophenoxy)-N-(2-(pyridine-4-yl)benzo[d]oxazol-5-yl)propionamide], the LD50 is greater than 50 µM in the data set with COS, ~ 12.5 μM in the data set on HEK293 cells, greater than 50 µM in the data set with HeLa and greater than 50 µM in the data set with CHO.

Consider `COc1ccc(OC(C)C(=O)Nc2ccc3oc(-c4ccncc4)nc3c2)cc1` (stereo not drawn) [compound 44, 2-(4-methoxyphenoxy)-N-(2-(pyridine-4-yl)benzo[d]oxazol-5-yl)propionamide], for which the LD50 with COS, with HEK293 cells and in the data set on CHO was greater than 50 µM throughout.

With `CC(Oc1cccc(Cl)c1Cl)C(=O)Nc1ccc2oc(-c3ccncc3)nc2c1` (stereo not drawn) [compound 46, 2-(2,3-dichlorophenoxy)-N-(2-(pyridine-4-yl)benzo[d]oxazol-5-yl)propionamide], the “selectivity versus Toxo/WT” value in data set [2] is on record as greater than 30 fold. Also, the EC50 in data set [2] was no more than 250 nM. The LD50 in the data set with COS, in the data set with HEK293 cells and with CHO was greater than 50 µM in each case.

Take `CC(Oc1cccc2ccccc12)C(=O)Nc1ccc2oc(-c3ccncc3)nc2c1` (stereo not drawn) [compound 48, 2-(naphthalene-1-yloxy)-N-(2-(pyridine-4-yl)benzo[d]oxazol-5-yl)propionamide]: in data set [2], the “selectivity versus Toxo/WT” value was greater than 30 fold and the EC50 was no more than 250 nM.

On to `C[C@H](Oc1cccc(Cl)c1Cl)C(=O)Nc1ccc2oc(-c3ccncc3)nc2c1` [compound 55, (S)-2-(2,3-dichlorophenoxy)-N-(2-(pyridin-4-yl)benzo[d]oxazol-5-yl)propionamide], for which the half-life in data set [1] (t1/2 (min) + NADPH, + NADPH) was no more than 12 min; in data set [1] (t1/2 (min) − NADPH, − NADPH) it was no more than 12 min.

For `C[C@H](Oc1cccc([N+](=O)[O-])c1Cl)C(=O)Nc1ccc2oc(-c3ccncc3)nc2c1` [compound 57, (S)-2-(2-chloro-3-nitrophenoxy)-N-(2-(pyridine-4-yl)benzo[d]oxazol-5-yl)propionamide], the LD50 in the data set on COS, in the data set on HEK293 cells and in the data set on CHO was greater than 50 µM throughout.

In the case of `C[C@H](Oc1cccc(Cl)c1Cl)C(=O)Nc1ccc2oc(-c3cncs3)nc2c1` [compound 62, (S)-2-(2,3-dichlorophenoxy)-N-(2-(thiazol-5-yl)benzo[d]oxazol-5-yl)propionamide], the half-life in data set [1] (t1/2 (min) + NADPH, + NADPH) was no more than 12 min; in data set [1] (t1/2 (min) − NADPH, − NADPH), no more than 12 min.

In turn, `C[C@H](Oc1cccc2ccccc12)C(=O)Nc1ccc2oc(-c3cncs3)nc2c1` [compound 63, (S)-2-(naphthalene-1-yloxy)-N-(2-(thiazol-5-yl)benzo[d]oxazol-5-yl)propionamide] had a Ki on CpIMPDH (Kis (nM), Substrate IMP) of 1.6 ± 0.7 nM. This compound came in with a Ki at CpIMPDH (Kis (nM), Substrate NAD) of 0.9 ± 0.3 nM. Further, on CpIMPDH, the “inhibition mechanism with respect to NAD+” value is given as “competitive” and the “inhibition mechanism with respect to IMP” value was “noncompetitive”.

As to `C[C@H](Oc1cccc(Cl)c1Cl)C(=O)Nc1cc(Cl)c2oc(-c3ccncc3)nc2c1` [compound 68, (S)-N-(7-chloro-2-(pyridin-4-yl)benzo[d]oxazol-5-yl)-2-(2,3-dichlorophenoxy)propionamide], on CpIMPDH, the Ki was 150 ± 30 nM, the “inhibition mechanism with respect to NAD+” value is “competitive” and the “inhibition mechanism with respect to IMP” value is “noncompetitive”. The compound further displayed a Ki on CpIMPDH (Kis (nM), Substrate IMP) of 210 ± 10 nM.

In the case of `C[C@@H](C(=O)Nc1ccc2oc(-c3ccncc3)nc2c1)c1ccccc1` [compound 72, (R)-2-phenyl-N-(2-(pyridine-4-yl)benzo[d]oxazol-5-yl)propionamide], at CpIMPDH (Kis (nM), Substrate IMP), the affinity corresponds to a Ki of 100 ± 20 nM. Further, at CpIMPDH (Kis (nM), Substrate NAD), the Ki was found to be 40 ± 10 nM. Besides, on CpIMPDH, the “inhibition mechanism with respect to NAD+” value is on record as “competitive” and the “inhibition mechanism with respect to IMP” value was “noncompetitive”.

What is called half-life is how long it takes for the measured level to halve. Broadly, the Ki is a dissociation constant, usually derived from enzyme kinetics or from competition with a known ligand.
